# US9895342B2, “Cannabinoids for use in the treatment of neuropathic pain” (GW Pharma Limited, priority 2011, dated 2018)
# Columns and labels:
# patients = settings: cited from earlier work
# SNI mice [1] = experiment: Thermal hyperalgesia (Plantar Test Apparatus, paw withdrawal latency) in spared nerve injury mice; assay type: in vivo; settings: for dose-dependence of effect on thermal withdrawal latency: 2.5 vs 5 mg/kg; for ability to treat neuropathic pain compared with CBD: thermal withdrawal data
# Description: (§1) Peripheral neuropathic pain is produced by multiple etiological factors that initiate a number of diverse mechanisms at different sites and in different disease states. Spared nerve injury (SNI) consists of partial ligation and transaction of the sciatic nerve which evolves in neuropathic pain whose typical manifestations are represented by thermal hyperalgesia and tactile allodynia.
# (§2) Chronic pain symptoms are measured through changes in thermoceptive responses (which is indicative of thermal hyperalgesia) using Plantar Test Apparatus (Ugo Basile, Varese, Italy) and in mechanical paw withdrawal threshold (which is indicative of mechanical allodynia) by a Dynamic Plantar Aesthesiometer (Ugo Basile, Varese, Italy). Nociceptive responses were measured before and after surgery in groups of mice differently treated (vehicle or drugs different combinations).
# (§3) The cannabinoids tested were CBG, CBC, CBDV, and THCV. […] The cannabinoids were prepared from whole plant extracts of cannabis plants which had been purified. The cannabinoids were dissolved in ringer/0.5% dimethyl sulfoxide (DMSO), for intraperitoneal (i.p.) administration.
# (§4) Male CD-1 mice (35-40 g) were housed, 3 per cage, under controlled illumination (12:12 h light:dark cycle; light on 06.00 h) and environmental conditions (room temperature 20-22° C., humidity 55-60%) for at least 1 week before the commencement of experiments. Mouse chow and tap water were available ad libitum. The experimental procedures were approved by the Ethic Committee of the Second University of Naples. Animal care was in compliance with the IASP and European Community (E.C. L358/1 18/12/86) guidelines on the use and protection of animals in experimental research. All efforts were made to minimize animal suffering and to reduce the number of animals used.
# (§5) Behavioural testing was performed before surgery to establish a baseline for comparison with post-surgical values. Mononeuropathy was induced according to the method of Bourquin and Decosterd (2006).
# (§6) Mice were anaesthetized with sodium pentobarbital (60 mg/kg i.p.). The right hindlimb was immobilized in a lateral position and slightly elevated. Incision was made at mid-thigh level using the femur as a landmark. The sciatic nerve was exposed at mid-thigh level distal to the trifurcation and freed of connective tissue; the three peripheral branches (sural, common peroneal, and tibial nerves) of the sciatic nerve were exposed without stretching nerve structures.
# (§7) Both tibial and common peroneal nerves were ligated and transacted together. A micro-surgical forceps with curved tips was delicately placed below the tibial and common peroneal nerves to slide the thread (5.0 silk, Ethicon, Johnson, and Johnson Intl, Brussels, Belgium) around the nerves. A tight ligation of both nerves was performed. The sural nerve was carefully preserved by avoiding any nerve stretch or nerve contact with surgical tools. Muscle and skin were closed in two distinct layers with silk 5.0 sutures.
# (§8) Intense, reproducible and long-lasting thermal hyperalgesia and mechanical allodynia-like behaviors are measurable in the non-injured sural nerve skin territory. The SNI model offers the advantage of a distinct anatomical distribution with an absence of co-mingling of injured and non-injured nerve fibers distal to the lesion such as the injured and non-injured nerves and territories can be readily identified and manipulated for further analysis (i.e. behavioral assessment).
# (§9) The sham procedure consisted of the same surgery without ligation and transection of the nerves.
# (§10) The groups of mice were divided as follows, each cannabinoid tested has its own group of mice:
# (§11) The cannabinoids were dosed daily for 14 days. Doses for all cannabinoids tested were: 2.5 and 5.0 mg/Kg. Vehicle solution was 0.5% DMSO in ringer solution.
# Thermal hyperalgesia was evaluated by using a Plantar Test Apparatus (Ugo Basile, Varese, Italy). […]
# SNI mice [2] = experiment: Mechanical allodynia (Dynamic Plantar Aesthesiometer, paw withdrawal threshold) in spared nerve injury mice; assay type: in vivo; settings: for MECHANICAL WITHDRAWAL THRESHOLD: SNI mice; for overall efficacy, mechanical withdrawal: both of the doses tested (2.5 and 5 mg/kg); for ability to treat neuropathic pain compared with CBD: mechanical withdrawal data; for mechanical withdrawal, course over time: 5.0 mg/kg, day 7 to day 14
# Description: as §1, §2, §3, §4, §5, §6, §7, §8, §9, §10, §11
# Mechanical allodynia was measured by using Dynamic Plantar Anesthesiometer (Ugo Basile, Varese, Italy). […]
# [3] = system: chronic constriction injury of the rat sciatic nerve; settings: administered as a purified compound; Costa et al., 2004; cited from earlier work
# [4] = SNI mice, 2.5 mg/kg i.p. daily, DAY 3
# [5] = SNI mice, 2.5 mg/kg i.p. daily, DAY 7
# [6] = SNI mice, 2.5 mg/kg i.p. daily, DAY 14
# [7] = SNI mice, 5 mg/kg i.p. daily, DAY 3
# [8] = SNI mice, 5 mg/kg i.p. daily, DAY 7
# [9] = SNI mice, 5 mg/kg i.p. daily, DAY 14
SMILES,"overall efficacy, thermal withdrawal (SNI mice [1]; 2.5 mg/kg)","THERMAL WITHDRAWAL LATENCY (SNI mice [1]; 5.0 mg/kg, day 3)",dose-dependence of effect on thermal withdrawal latency (SNI mice [1]),THERMAL WITHDRAWAL LATENCY (SNI mice [1]; [4]) [s],THERMAL WITHDRAWAL LATENCY (SNI mice [1]; [5]) [s],THERMAL WITHDRAWAL LATENCY (SNI mice [1]; [6]) [s],THERMAL WITHDRAWAL LATENCY (SNI mice [1]; [7]) [s],THERMAL WITHDRAWAL LATENCY (SNI mice [1]; [8]) [s],THERMAL WITHDRAWAL LATENCY (SNI mice [1]; [9]) [s],ability to treat neuropathic pain compared with CBD (SNI mice [1]),"MECHANICAL WITHDRAWAL THRESHOLD (SNI mice [2]; 2.5 mg/kg i.p. daily, DAY 3) [g]","MECHANICAL WITHDRAWAL THRESHOLD (SNI mice [2]; 2.5 mg/kg i.p. daily, DAY 7) [g]","MECHANICAL WITHDRAWAL THRESHOLD (SNI mice [2]; 2.5 mg/kg i.p. daily, DAY 14) [g]","MECHANICAL WITHDRAWAL THRESHOLD (SNI mice [2]; 5 mg/kg i.p. daily, DAY 3) [g]","MECHANICAL WITHDRAWAL THRESHOLD (SNI mice [2]; 5 mg/kg i.p. daily, DAY 7) [g]","MECHANICAL WITHDRAWAL THRESHOLD (SNI mice [2]; 5 mg/kg i.p. daily, DAY 14) [g]","overall efficacy, mechanical withdrawal (SNI mice [2])",ability to treat neuropathic pain compared with CBD (SNI mice [2]),"mechanical withdrawal, course over time (SNI mice [2])","overall efficacy, thermal withdrawal (SNI mice [1]; 5.0 mg/kg)",also measured
NC(=O)N1c2ccccc2C=Cc2ccccc21 [carbamezepine],,,,,,,,,,,,,,,,,,,,,"decrease in white blood cell count (patients; in 7% of patients): 25%; increase in the risk of blood dyscrasias (patients; post-marketing studies, patients taking carbamezepine): five- to eight-fold"
"CCCCCc1cc(O)c(C/C=C(\C)CCC=C(C)C)c(O)c1 [CBG, cannabigerol]",highest thermal withdrawal latency of all the cannabinoids,able to increase the amount of time before the animal withdrew its paw,do not appear to be dose-dependent,5.5,5.4,7.0,7.8,7.6,7.5,superior to CBD,3.4,6.1,7.8,6.0,6.1,7.8,good efficacy,superior to CBD,,,"THERMAL WITHDRAWAL LATENCY (SNI mice [1]; 2.5 mg/kg, day 3): increase in the amount of thermal withdrawal latency"
"C=C(C)[C@@H]1CCC(C)=C[C@H]1c1c(O)cc(CCCCC)cc1O [CBD, cannabidiol, reference compound]",relatively ineffective,able to increase the amount of time before the animal withdrew its paw,do not appear to be dose-dependent,3.5,4.2,5.6,5.8,7.0,7.5,,2.2,4.8,5.2,5.0,8.6,5.3,relatively ineffective,,large increase at day 7; however this latency decreased again at the 14 day time point,,relief of neuropathic pain [3]: can partially relieve neuropathic pain
"C=C(C)[C@@H]1CCC(C)=C[C@H]1c1c(O)cc(CCC)cc1O [CBDV, cannabidivarin]",good efficacy,,dose-dependent effects were observed,3.8,6.4,6.5,4.0,7.2,11.0,superior to CBD,6.8,7.0,7.8,6.7,6.6,7.7,highest mechanical withdrawal latency of all the cannabinoids,superior to CBD,,most effective,"THERMAL WITHDRAWAL LATENCY (SNI mice [1]; 5.0 mg/kg, 14 days): large increase; mechanical withdrawal latency (SNI mice [2]; 2.5 mg/kg, day 3): dramatic increase"
"CCCc1cc(O)c2c(c1)OC(C)(C)[C@@H]1CCC(C)=C[C@@H]21 [THCV, tetrahydrocannabivarin]",good efficacy,,do not appear to be dose-dependent,3.8,9.8,7.6,3.9,10.5,11.9,superior to CBD,3.0,6.2,7.5,3.2,8.5,9.8,good efficacy,superior to CBD,,most effective,"thermal withdrawal latency, course over time (SNI mice [1]; 2.5 mg/kg, day 7 to day 14): large increase at the day 7 time point which then decreases after a further 7 days; THERMAL WITHDRAWAL LATENCY (SNI mice [1]; 5.0 mg/kg, 14 days): large increase"
"CCCCCc1cc(O)c2c(c1)OC(C)(CCC=C(C)C)C=C2 (stereo not drawn) [CBC, cannabichromene]",relatively ineffective,able to increase the amount of time before the animal withdrew its paw,do not appear to be dose-dependent,3.7,4.8,5.2,6.0,7.0,7.2,,2.4,4.5,5.0,5.1,9.7,5.2,relatively ineffective,,large increase at day 7; however this latency decreased again at the 14 day time point,,
